Data taken from PubChem BioAssay AID504559 (Johns Hopkins Ion Channel Center, 2011).
Active and inactive are the calls of the source.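 How the source made its calls: active means dose-dependent block of Kir2.1 potassium channel current at -100 mV within the tested dose range; inactive means no dose-dependent block of that current.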

Biological target: Inward rectifier potassium channel 2 (Mus musculus) (UniProt P35561)
Assay: Kir2.1 channel inhibitors, concentration series, SAR follow-up, cell-based, IonWorks automated patch clamp, -100 mV (AID 504559)
Settings: Kir2.1 cell line, IonWorks patch clamp current at -100 mV; for current change, negative = inhibition: at 30 µM (top of the series)

Chain of Inward rectifier potassium channel 2 (Mus musculus) (P35561 whole entry, looked up): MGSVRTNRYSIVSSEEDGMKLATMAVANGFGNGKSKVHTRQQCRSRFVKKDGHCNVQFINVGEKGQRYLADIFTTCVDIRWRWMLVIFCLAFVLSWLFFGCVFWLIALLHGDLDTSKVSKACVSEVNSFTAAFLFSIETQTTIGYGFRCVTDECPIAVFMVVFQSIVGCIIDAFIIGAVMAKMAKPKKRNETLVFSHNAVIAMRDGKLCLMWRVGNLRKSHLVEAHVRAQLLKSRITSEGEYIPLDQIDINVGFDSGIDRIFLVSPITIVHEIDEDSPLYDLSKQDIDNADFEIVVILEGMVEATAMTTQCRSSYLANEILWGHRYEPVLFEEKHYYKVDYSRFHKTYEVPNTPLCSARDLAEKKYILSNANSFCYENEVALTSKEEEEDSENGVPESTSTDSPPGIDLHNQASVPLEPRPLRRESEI

## Cc1ccc2nc(N3CCN(CCO)CC3)nc(-c3ccccc3)c2c1
  current change, negative = inhibition: inactive

## c1ccc(CNc2c3ccccc3nc3ccccc23)cc1
  current change, negative = inhibition: inactive

## C[C@@H](NS(=O)(=O)c1ccccc1)c1ccccc1
  current change, negative = inhibition: inactive

## Cc1noc(C)c1COC(=O)CCN1c2ccccc2Sc2ccccc21
  current change, negative = inhibition: inactive

## C[C@@H](NS(C)(=O)=O)c1ccccc1
  current change, negative = inhibition: inactive

## Cc1ccc(C)c(OCCCNCc2ccccc2)c1
  IC50: 20.5 µM

## C[C@H](NS(=O)(=O)c1ccccc1Br)c1ccccc1
  current change, negative = inhibition: inactive

## C[C@H](NS(=O)(=O)c1cccc(Br)c1)c1ccccc1
  IC50: 30.9 µM

## Cc1ccc(S(=O)(=O)N[C@H](C)c2ccccc2)cc1
  current change, negative = inhibition: inactive

## O=C(NCC1CCCCN1)c1cc(OCC(F)(F)F)ccc1OCC(F)(F)F (configuration not stated)
  current change, negative = inhibition: inactive

## Cc1ccc(Nc2cc(C)nc3c(C)cccc23)cc1
  current change, negative = inhibition: inactive

## C[C@H](NS(C)(=O)=O)c1ccccc1
  current change, negative = inhibition: inactive

## C[C@@H](NS(=O)(=O)c1ccccc1Br)c1ccccc1
  current change, negative = inhibition: inactive

## C[C@H](NS(=O)(=O)c1ccc(Cl)cc1)c1ccccc1
  IC50: 21.6 µM

## C[C@@H](NS(=O)(=O)c1ccc(Cl)cc1)c1ccccc1
  current change, negative = inhibition: inactive

## C[C@@H](NS(=O)(=O)c1cc(Cl)cc(Cl)c1O)c1ccccc1
  current change, negative = inhibition: inactive

## C[C@H](NS(=O)(=O)c1ccc(Br)cc1)c1ccccc1
  IC50: 21.3 µM

## C[C@@H](NS(=O)(=O)c1cccc(Br)c1)c1ccccc1
  IC50: 30.6 µM

## Cc1ccc2nc(NCc3ccccc3)[nH]c2c1
  current change, negative = inhibition: inactive

## CC(O)CNCCCOc1cccc(Oc2ccccc2)c1 (configuration not stated)
  IC50: 11.4 µM

## C[C@H](NS(=O)(=O)c1ccccc1)c1ccccc1
  current change, negative = inhibition: inactive

## C[C@H](NS(=O)(=O)c1cc(Cl)cc(Cl)c1O)c1ccccc1
  current change, negative = inhibition: inactive
